Measured values reported in US20120302748A1, “TREATMENT OR PROPHYLAXIS OF PROLIFERATIVE CONDITIONS” (THE UNIVERSITY COURT OF THE UNIVERSITY OF DUNDEE, priority 2009, published 2012).
Like-named read-outs stand apart in the source and are kept apart here.

Experiments:
UT-SCC-14 tumour cells = assay: Cytotoxicity in primary HNSCC tumour cell line UT-SCC-14 (MTS assay); details: Homo sapiens, 72 h, read-out: cytotoxicity IC50 UT-SCC-14
Procedure: A UT-SCC-14 tumour cell suspension at 2000 cells per well on a 96-well plate and if necessary add fresh media to give a total volume per well of 100 μl. The cells were allowed to attach for 4 h in an incubator. […] The final concentration of ethanol 0.2% was found not to effect the growth characteristics of the UT-SCC-14 cell line. The UT-SCC-14 cells were incubated with test compound for 72 h after which time all aspirated and replaced with 100 μl of fresh medium to compensate for the loss of medium due to evaporation. The cells were incubated with 20 μl of the MTS assay reagent for 1.5 h and the absorbance per well at 510 nm measured using a plate reader. The mean absorbance and standard deviation for each test compound concentration was calculated versus a series of controls including (a) cells plus medium, (b) cell plus medium containing ethanol 0.2%, (c) medium alone, and (d) medium containing ethanol 0.2% and a range of test compound concentrations from 0 to 100 μmol dm^−3.

UT-SCC-9 = assay: cells; details: Homo sapiens, 72 h, read-out: cytotoxicity IC50 UT-SCC-9
UT-SCC-10 = assay: cells; details: Homo sapiens, 72 h, read-out: cytotoxicity IC50 UT-SCC-10
UT-SCC-8 = assay: cells; details: Homo sapiens, 72 h, read-out: cytotoxicity IC50 UT-SCC-8
CYP1A1 [1] = assay: in vitro; details: Chinese hamster
CHO/CYP1B1 cells [2] = system: CHO/CYP1B1 cells
CHO/CYP1B1 cells [3] = assay: cells; details: Cricetulus griseus
in vitro = details: Chinese hamster
CYP1B1 [4] = target: T1, CYP1B1 (Homo sapiens, UniProt Q16678); assay: CYP1B1 substrate prediction model (Gaussian Kernel weighted k-NN); details: predicted versus actual
T1 sequence (Q16678 1-543): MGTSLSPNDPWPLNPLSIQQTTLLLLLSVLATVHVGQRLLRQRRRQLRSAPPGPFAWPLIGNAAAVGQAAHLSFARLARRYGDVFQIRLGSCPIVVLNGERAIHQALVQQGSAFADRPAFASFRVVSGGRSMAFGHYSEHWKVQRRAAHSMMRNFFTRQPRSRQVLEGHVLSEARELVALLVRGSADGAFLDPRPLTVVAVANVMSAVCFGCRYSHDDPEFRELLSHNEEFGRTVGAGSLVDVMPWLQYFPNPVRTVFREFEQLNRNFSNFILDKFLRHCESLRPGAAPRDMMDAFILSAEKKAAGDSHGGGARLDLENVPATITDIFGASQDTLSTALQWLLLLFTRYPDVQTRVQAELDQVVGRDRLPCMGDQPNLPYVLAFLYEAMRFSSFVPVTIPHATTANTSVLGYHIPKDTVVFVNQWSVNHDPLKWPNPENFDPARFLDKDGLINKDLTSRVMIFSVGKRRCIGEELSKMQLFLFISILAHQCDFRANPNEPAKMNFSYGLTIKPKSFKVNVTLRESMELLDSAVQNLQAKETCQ

[5] = system: UTSCC-14 primary human tumour xenograft; assay: Anti-tumour activity in primary human tumour xenograft model; assay type: in vivo, nude mice; details: for Tumour growth delay at 28 days: 2 cycles daily for 5 days/2 days off
Procedure: Primary UTSCC-14 cell lines 3×10^6 were implanted subcutaneously in the flank of nude mice. Mice were randomized to 10 animals per group when the tumour volume was 100 to 150 mm^3. SU046-04 was given intraperitoneally at 12, 25 and 50 mg/Kg in PBS versus versus vehicle alone for 2 cycles: daily for 5 days/2 days off. Tumour volume was measured every 4 days using calipers. […] Tumour growth delay at 28 days was 31% at 12 mg/Kg, 56% at 25 mg/Kg, and 90% at 50 mg/Kg with 4/10 complete responses.

CYP1B1 [6] = target: T1, CYP1B1; assay: CYP1B1 substrate inhibition, P450-Glo Luciferin-CEE luminescent assay; details: human
[7] = target: T2, human supersomal CYP1B1 plus reductase (Homo sapiens, UniProt Q16678); assay: as above; details: final concentration of 0.5 mmol dm^−3; triplicate, mean ± standard deviation
T2 sequence (Q16678 1-543): T1 sequence (Q16678 1-543)

CYP1A1 [8] = target: T3, CYP1A1 (Homo sapiens, UniProt P04798); details: inhibitor at 10 nmol dm^−3
T3 sequence (P04798 1-512): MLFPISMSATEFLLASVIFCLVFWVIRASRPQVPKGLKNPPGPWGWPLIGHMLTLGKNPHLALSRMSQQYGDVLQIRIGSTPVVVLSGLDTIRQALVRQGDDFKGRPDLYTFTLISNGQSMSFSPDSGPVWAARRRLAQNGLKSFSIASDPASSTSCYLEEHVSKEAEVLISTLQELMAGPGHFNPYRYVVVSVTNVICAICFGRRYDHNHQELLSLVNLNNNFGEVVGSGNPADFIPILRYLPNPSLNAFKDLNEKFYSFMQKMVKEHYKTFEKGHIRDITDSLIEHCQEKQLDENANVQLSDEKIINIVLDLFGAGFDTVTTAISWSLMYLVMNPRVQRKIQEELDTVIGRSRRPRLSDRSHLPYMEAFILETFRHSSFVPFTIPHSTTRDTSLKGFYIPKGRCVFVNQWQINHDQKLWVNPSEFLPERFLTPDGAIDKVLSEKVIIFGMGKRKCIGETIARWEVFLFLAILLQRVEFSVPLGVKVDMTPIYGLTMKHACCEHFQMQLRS

CYP1A1 [9] = target: T3, CYP1A1; details: inhibitor at 10 nmol dm^−3; remark: listed apart in the source

Compound: O=P1(N(CCCl)CCCl)NCCCO1 (stereo not drawn) [cyclophosphamide]
- toxicity in the CHO cytotoxicity assay (CHO cells): non-toxic

Compound: CC[C@@]1(O)C(=O)OCc2c1cc1n(c2=O)Cc2cc3cc(OCc4cc5cc(OC)cc(OC)c5o4)ccc3nc2-1 [SU037-04]
- IC50 (UT-SCC-14 tumour cells): 120 ± 70 nM
- IC50 (UT-SCC-9): 220 ± 80 nM
- IC50 (UT-SCC-10): 210 ± 40 nM
- IC50 (UT-SCC-8): 560 ± 40 nM

Compound: Cc1cc(=O)oc2cc(OCc3c4ccccc4cc4ccccc34)ccc12 [SU06-02, 7-(anthracen-9-ylmethoxy)-4-methyl-2H-chromen-2-one]
- melting point: 216 to 218 °C

Compound: COc1cc(OC)c2oc(COP(=O)(NCCBr)NCCBr)cc2c1 [SU046-04]
- IC50 (UT-SCC-14 tumour cells): 20 ± 10 nM
- IC50 (CYP1A1 [1]): 20300 ± 2100 nM
- IC50 ratio 72 h (CHO / CHO/CYP1B1) (CHO/CYP1B1 cells [2]): 5075
- IC50 (CHO/CYP1B1 cells [3]; 72 h, read-out: Cytotoxicity (IC50) CHO/CYP1B1 72 h): 4 ± 2 nM
- IC50 (CHO/CYP1B1 cells [3]; 96 h, read-out: Cytotoxicity (IC50) CHO/CYP1B1 96 h): 3 ± 1 nM
- IC50 (in vitro; Cytotoxicity (IC50) CHO 72 h): 20300 ± 1200 nM
- IC50 (in vitro; Cytotoxicity (IC50) CHO 96 h): 16200 ± 200 nM
- IC50 (in vitro; cytotoxicity IC50 in wild-type CHO cells): ≥ 10000 nM
- % CYP1B1 substrate inhibition accuracy (CYP1B1 [4]): 96%
- Tumour growth delay at 28 days ([5]; 12 mg/Kg intraperitoneally): 31%
- Tumour growth delay at 28 days ([5]; 25 mg/Kg intraperitoneally): 56%
- complete responses ([5]; 50 mg/Kg intraperitoneally): 4/10
- Tumour growth delay at 28 days ([5]; 50 mg/Kg intraperitoneally): 90%
- adverse effects / body weight loss ([5]; after highest exposure 250 mg/Kg): No observed adverse effects or significant body weight loss
- inhibition of tumour growth versus vehicle ([5]; all three treatment arms 12, 25 and 50 mg/Kg): significant inhibition of tumour growth
- inhibition at 0.5 mmol dm^−3 (CYP1B1 [6]): 96.45 ± 0.22%

Compound: C[C@]12CC[C@@H]3c4ccc(O)cc4CC[C@H]3[C@@H]1CC[C@@H]2O [β-estradiol, reference compound]
- % CYP1B1 substrate inhibition accuracy (CYP1B1 [4]): 95%
- % CYP1B1 substrate inhibition actual [7]: 72.34 ± 0.45%

Compound: tetramethoxystilbene
- % CYP1B1 substrate inhibition accuracy (CYP1B1 [4]): 98%
- Specific activity CHO/CYP1A1 ethoxyresorufin (CYP1A1 [8]): 26 ± 4 pmol resorufin or luciferin min^−1 mg protein^−1
- Specific activity CHO/CYP1A1 Luciferin-CEE (CYP1A1 [9]): 20 ± 5 pmol resorufin or luciferin min^−1 mg protein^−1
